Patent US20010034352A1, “Piperidine-4 sulphonamide compounds” (priority 2000, published 2001)

How the values were obtained:
Format in all cases: cell-based
[1] = system: thoracic aorta rings of a Wistar rat; assay: Vascular protective effects with respect to endothelial dysfunction induced by an inhibitor of NOS (LNA), ACh relaxation of aortic rings; conditions: compound at 3×10^−9 M, LNA 3.10^−7 M, difference between percentages of maximum ACh relaxation in presence or absence of product
From the text: Under standard in vitro conditions, relaxation of aortic rings caused by acetylcholine (ACh), which relaxation is totally dependent upon the presence of endothelium, reflects the production of NO (stimulated by ACh), which by diffusing to smooth muscle cells brings about arterial relaxation (Nature, 1980, 288, 373).
the first model consists of inducing inhibition of the relaxation due to ACh by blocking the enzymatic activity (endothelial NOS) responsible for the production of NO.
Vascular Protective Effects with Respect to Endothelial Dysfunction Induced by an Inhibitor of NOS
The thoracic aorta of a Wistar rat (325-375 g), anaesthetised by the intraperitoneal route using sodium pentobarbital (30 mg/kg), is removed and dissected into rings of 3 mm in length. […]
After a 90-minute stabilisation period, the preparations are contracted using phenylephrine (PHE 10^−6 M) and relaxed by adding 10^−5 M of acetylcholine in order to verify the 10 integrity of the endothelial layer. […] The preparations are again contracted using phenylephrine and, after 30 minutes, the relaxations due to acetylcholine (ACh—10^−8M to 10^−5 M) are assessed in the presence of indomethacin (10^−5M).
(§1) The relaxation values are expressed as a percentage relative to the maximum contraction caused by PHE. […]

[2] = system: aortic rings of New Zealand rabbits; assay: Vascular protective effects with respect to endothelial dysfunction induced by a system generating O2^− (XO-Hypo), ACh relaxation of aortic rings; conditions: compound at 3×10^−9 M; rabbit aortic rings; XO 3 mU/ml, Hypo 10^−4 M; difference between percentages of maximum ACh relaxation in presence or absence of product
Method: the second model consists of inducing oxidative stress in vitro using an enzymatic system that generates O2^− (xanthine oxidase —XO and hypoxanthine—Hypo).
The thoracic aorta of a Wistar rat (325-375 g), anaesthetised by the intraperitoneal route using sodium pentobarbital (30 mg/kg), is removed and dissected into rings of 3 mm in length. Each ring is suspended from an isometric tension sensor connected to a recording system and the initial tension applied is 2.5 g. The physiological solution used, which is thermostatically maintained at 37° C., and oxygenated (95% O2+5% CO2), comprises (in mM): NaCl 112.0, KCl 5.0, CaCl2 2.5, KH2PO4 1.0, MgSO4 1.2, NaHCO3 25.0, glucose 11.5, Ca-EDTA 0.016.
After a 90-minute stabilisation period, the preparations are contracted using phenylephrine (PHE 10^−6 M) and relaxed by adding 10^−5 M of acetylcholine in order to verify the 10 integrity of the endothelial layer. If that is confirmed, the preparations are rinsed and a concentration of the test product (or its solvent) is added to the medium, followed by 3.10^−7 M of N^G-nitro-L-arginine (LNA). The preparations are again contracted using phenylephrine and, after 30 minutes, the relaxations due to acetylcholine (ACh—10^−8M to 10^−5 M) are assessed in the presence of indomethacin (10^−5M).
as §1

[3] = system: cGMP in rat aortic rings; assay: Assessment of aortic production of cGMP stimulated by ACh in the presence of LNA (radioimmunoassay); conditions: compound at 3×10^−9 M, 30-minute incubation, ACh 10^−5 M 1 minute, LNA 3×10^−6 M, isobutylmethylxanthine 10^−5 M
Method: Involvement of the NO Route in the Vascular Protective Effects Detected: Assessment of Aortic Production of cGMP
By diffusing to the smooth muscle cells, the NO produced by the endothelial cells activates soluble guanylate cyclase, which brings about an increase in cyclic GMP which is responsible for relaxation.
The rat aortic rings are prepared as previously. Assessment is made of the effects of a 30-minute incubation of the compounds of the invention at different concentrations on the production of cGMP stimulated by ACh (10^−5 M—1 minute) in the presence of LNA (3×10^−6 M). The experiments are carried out in the presence of isobutylmethylxanthine (10^−5 M) in order to avoid degradation of the cGMP by phosphodiesterases. The rings are frozen in liquid nitrogen and maintained at −80° C. until the assay is carried out. The cGMP content is assessed by radioimmunoassay and expressed in relation to the amount of protein contained in the tissue (assay by the Bradford method).

## O=S(=O)(NC1CCN(CCc2coc3ccccc23)CC1)c1cccc2cnccc12 [Example 8, N-{1-[2-(Benzofuran-3-yl)ethyl]-4-piperidyl}-5-isoquinolinesulphonamide]
[1]
  inhibition of the endothelial dysfunction induced by LNA: 23%
[2]
  inhibition of the endothelial dysfunction induced by the XO-Hypo combination: 28.3%
[3]
  increase of the production of cGMP stimulated by ACh in the presence of LNA: 142.7%
